US11447505B1, “Pyrrolo[2,3-b]pyridine compounds and their use in the treatment of cancer” (priority 2017, dated 2022)
pKi: −log10 of the molar value.

Assays:
ROCK2 = ROCK2 (Homo sapiens (Human), UniProt O75116); assay: ROCK2 kinase assay (IMAP fluorescence polarization); format: biochemical; conditions: 1 μM ATP; read-out: ROCK2 Average Ki
ROCK1 = ROCK1 (Homo sapiens (Human), UniProt Q13464); conditions: read-out: ROCK1 Average Ki; 1 μM ATP
Procedure: MRCKα, MRCKβ, ROCK1 and ROCK2 assays were performed using an IMAP fluorescence polarization assay format (Molecular Devices Inc.). […] Typically, dose response analyses were performed over concentration ranges from 0.005-100 μM. […] After 30 min incubation to allow binding reagent to bind phosphorylated peptide, fluorescence polarization was measured on a Tecan Saphire^2 plate reader at excitation (470 nm) and emission (530 nm) wavelengths.

MRCKα = MRCKα (Homo sapiens (Human), UniProt Q5VT25); assay: MRCKα kinase assay (IMAP fluorescence polarization); format: biochemical; conditions: 1 μM ATP; read-out: MRCK-a Average Ki
MRCKα, sequence (Q5VT25 whole entry): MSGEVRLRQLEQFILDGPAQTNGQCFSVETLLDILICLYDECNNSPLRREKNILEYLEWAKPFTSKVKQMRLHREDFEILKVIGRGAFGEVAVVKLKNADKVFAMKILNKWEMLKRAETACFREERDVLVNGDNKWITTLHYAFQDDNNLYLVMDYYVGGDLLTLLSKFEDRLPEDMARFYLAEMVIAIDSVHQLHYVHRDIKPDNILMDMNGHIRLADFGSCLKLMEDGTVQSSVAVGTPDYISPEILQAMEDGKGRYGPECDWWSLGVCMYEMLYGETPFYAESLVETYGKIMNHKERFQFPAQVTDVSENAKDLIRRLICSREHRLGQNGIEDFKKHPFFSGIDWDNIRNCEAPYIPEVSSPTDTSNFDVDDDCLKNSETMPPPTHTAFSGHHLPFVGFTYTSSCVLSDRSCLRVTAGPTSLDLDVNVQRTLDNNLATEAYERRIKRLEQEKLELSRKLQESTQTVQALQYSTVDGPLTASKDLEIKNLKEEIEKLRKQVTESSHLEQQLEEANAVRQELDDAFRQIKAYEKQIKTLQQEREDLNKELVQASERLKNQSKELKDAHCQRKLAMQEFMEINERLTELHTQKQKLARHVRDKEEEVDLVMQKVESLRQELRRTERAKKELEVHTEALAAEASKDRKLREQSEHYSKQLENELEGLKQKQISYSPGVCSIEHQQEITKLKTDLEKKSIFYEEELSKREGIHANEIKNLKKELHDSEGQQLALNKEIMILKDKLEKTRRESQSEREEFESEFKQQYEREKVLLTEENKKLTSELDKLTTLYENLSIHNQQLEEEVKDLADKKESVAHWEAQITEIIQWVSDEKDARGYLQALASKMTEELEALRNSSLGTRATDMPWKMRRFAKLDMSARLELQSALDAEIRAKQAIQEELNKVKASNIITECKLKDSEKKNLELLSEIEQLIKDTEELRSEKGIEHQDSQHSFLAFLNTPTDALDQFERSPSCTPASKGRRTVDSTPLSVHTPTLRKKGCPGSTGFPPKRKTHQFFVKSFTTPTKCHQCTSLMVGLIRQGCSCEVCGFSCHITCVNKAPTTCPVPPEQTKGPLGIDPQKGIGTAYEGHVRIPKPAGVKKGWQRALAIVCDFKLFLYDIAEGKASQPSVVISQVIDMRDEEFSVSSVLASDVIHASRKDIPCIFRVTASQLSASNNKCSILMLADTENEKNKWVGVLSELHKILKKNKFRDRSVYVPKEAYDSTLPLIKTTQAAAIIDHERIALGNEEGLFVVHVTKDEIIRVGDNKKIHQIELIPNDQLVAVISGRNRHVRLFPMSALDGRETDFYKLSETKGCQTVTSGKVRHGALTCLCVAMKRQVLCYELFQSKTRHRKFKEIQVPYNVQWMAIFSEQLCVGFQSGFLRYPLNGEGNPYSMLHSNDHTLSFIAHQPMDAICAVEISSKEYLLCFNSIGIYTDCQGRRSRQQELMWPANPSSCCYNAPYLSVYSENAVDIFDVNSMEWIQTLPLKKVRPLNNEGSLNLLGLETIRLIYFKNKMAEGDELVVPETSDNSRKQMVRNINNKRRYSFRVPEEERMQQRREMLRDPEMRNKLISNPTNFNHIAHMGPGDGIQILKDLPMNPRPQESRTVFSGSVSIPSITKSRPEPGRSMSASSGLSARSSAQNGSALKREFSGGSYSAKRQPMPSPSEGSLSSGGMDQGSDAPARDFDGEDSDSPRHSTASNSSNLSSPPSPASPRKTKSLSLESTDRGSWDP
From the text: (§1) MRCKα, MRCKβ, ROCK1 and ROCK2 Kinase Assays

MRCKβ = MRCKβ (Homo sapiens (Human), UniProt Q9Y5S2); assay: MRCKβ kinase assay (IMAP fluorescence polarization); format: biochemical; conditions: 1 μM ATP; read-out: MRCK-B Average Ki
From the text: as §1

ROCK1, sequence (Q13464 2-1354 limits assumed): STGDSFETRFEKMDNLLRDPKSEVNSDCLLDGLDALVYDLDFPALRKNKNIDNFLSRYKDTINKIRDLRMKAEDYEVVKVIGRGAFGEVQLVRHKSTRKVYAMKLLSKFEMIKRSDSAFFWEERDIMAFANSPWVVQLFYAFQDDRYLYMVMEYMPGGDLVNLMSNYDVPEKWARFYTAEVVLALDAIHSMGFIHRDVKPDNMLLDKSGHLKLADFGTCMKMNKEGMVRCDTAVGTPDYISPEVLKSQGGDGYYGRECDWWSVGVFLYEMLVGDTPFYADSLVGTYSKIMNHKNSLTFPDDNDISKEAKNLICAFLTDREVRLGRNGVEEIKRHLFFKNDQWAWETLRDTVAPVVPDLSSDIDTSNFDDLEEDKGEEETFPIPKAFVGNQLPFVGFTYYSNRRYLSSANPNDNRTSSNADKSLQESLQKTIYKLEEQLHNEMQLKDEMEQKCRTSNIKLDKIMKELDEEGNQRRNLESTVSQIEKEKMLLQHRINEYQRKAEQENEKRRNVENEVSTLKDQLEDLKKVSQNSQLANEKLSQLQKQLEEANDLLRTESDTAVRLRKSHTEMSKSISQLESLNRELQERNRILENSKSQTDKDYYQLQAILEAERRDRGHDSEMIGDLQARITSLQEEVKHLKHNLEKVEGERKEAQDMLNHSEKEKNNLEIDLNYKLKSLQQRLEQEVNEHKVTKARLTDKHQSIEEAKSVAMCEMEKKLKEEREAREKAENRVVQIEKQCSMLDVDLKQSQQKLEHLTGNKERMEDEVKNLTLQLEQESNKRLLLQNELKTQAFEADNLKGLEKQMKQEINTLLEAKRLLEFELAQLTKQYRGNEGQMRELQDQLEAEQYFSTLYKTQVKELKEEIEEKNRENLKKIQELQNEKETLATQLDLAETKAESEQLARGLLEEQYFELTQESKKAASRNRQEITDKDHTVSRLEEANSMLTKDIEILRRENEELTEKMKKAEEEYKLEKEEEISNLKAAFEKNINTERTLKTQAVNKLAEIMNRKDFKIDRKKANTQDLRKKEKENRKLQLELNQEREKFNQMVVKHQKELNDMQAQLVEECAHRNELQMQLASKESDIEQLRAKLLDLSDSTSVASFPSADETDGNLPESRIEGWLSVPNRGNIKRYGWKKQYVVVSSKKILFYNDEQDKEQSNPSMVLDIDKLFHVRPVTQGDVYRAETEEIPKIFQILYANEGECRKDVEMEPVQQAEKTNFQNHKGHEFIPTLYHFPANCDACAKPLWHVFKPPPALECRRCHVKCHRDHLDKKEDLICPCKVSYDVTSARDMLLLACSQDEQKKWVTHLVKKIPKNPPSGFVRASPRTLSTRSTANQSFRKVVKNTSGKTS
ROCK2, sequence (O75116 whole entry): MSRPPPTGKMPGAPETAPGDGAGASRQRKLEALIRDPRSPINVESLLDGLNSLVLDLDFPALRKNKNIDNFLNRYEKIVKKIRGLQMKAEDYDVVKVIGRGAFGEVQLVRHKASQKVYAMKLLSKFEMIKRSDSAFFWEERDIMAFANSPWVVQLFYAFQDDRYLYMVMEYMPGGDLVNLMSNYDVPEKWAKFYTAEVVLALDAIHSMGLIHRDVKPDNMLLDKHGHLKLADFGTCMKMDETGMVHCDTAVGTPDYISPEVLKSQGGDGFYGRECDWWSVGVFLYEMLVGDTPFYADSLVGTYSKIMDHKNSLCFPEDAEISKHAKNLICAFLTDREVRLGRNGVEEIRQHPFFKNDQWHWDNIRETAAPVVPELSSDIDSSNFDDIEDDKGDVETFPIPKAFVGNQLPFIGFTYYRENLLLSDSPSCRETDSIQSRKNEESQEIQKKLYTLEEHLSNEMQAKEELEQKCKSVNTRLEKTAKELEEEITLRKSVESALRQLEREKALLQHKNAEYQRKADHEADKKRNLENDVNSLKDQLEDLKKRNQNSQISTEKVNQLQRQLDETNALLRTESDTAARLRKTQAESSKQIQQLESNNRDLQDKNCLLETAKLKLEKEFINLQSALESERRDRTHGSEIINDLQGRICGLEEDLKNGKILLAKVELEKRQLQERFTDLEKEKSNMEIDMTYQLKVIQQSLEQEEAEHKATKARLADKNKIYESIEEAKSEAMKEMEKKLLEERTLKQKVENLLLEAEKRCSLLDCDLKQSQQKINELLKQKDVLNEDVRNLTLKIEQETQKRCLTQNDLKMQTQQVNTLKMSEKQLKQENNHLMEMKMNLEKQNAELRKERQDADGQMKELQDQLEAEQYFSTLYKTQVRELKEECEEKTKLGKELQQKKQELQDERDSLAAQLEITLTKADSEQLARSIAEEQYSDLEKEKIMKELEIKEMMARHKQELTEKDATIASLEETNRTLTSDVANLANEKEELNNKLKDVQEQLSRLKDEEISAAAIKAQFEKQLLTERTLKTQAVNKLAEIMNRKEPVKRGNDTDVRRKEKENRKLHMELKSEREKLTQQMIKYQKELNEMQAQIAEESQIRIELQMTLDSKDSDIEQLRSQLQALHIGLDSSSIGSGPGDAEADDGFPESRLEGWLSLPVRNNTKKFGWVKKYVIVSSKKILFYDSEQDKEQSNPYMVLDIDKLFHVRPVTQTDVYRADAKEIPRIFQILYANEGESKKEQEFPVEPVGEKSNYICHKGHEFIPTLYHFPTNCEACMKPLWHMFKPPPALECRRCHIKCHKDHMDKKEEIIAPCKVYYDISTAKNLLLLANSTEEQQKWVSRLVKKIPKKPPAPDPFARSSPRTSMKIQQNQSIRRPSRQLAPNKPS

Row | Structure (SMILES) | pKi (ROCK2) | pKi (ROCK1) | pKi (MRCKα) | pKi (MRCKβ)
1 | FC1CCN([C@H]2CCCN(c3ccnc4[nH]cc(-c5cncnc5)c34)C2)C1 (stereo partly drawn) [Example E95, 4-[(3S)-3-(3-fluoropyrrolidin-1-yl)-1-piperidyl]-3-pyrimidin-5-yl-1H-pyrrolo[2,3-b]pyridine] | 6.40 | 6.16 | 7.71 | 8.16
2 | CN[C@H]1CCCN(c2ccnc3[nH]cc(-c4cnccn4)c23)C1 [Example E72, (3S)-N-methyl-1-(3-pyrazin-2-yl-1H-pyrrolo[2,3-b]pyridin-4-yl)piperidin-3-amine] | 6.57 | 4.29 | 9.20 | 8.53
3 | c1ncc(-c2c[nH]c3nccc(N4CCC[C@H](N5CCCC5)C4)c23)cn1 [Example E99, 3-pyrimidin-5-yl-4-[(3S)-3-pyrrolidin-1-yl-1-piperidyl]-1H-pyrrolo[2,3-b]pyridine] | 6.22 | 5.78 | 8.24 | 8.42
4 | N[C@H]1CCCN(c2ccnc3[nH]cc(-c4cncnc4)c23)C1 [Example E69, (3S)-1-(3-pyrimidin-5-yl-1H-pyrrolo[2,3-b]pyridin-4-yl)piperidin-3-amine] | 6.56 | 6.34 | 8.35 | 8.57
5 | CN[C@H]1CCCN(c2ccnc3[nH]cc(-c4cnn(C)c4)c23)C1 [Example E55, (3S)-N-methyl-1-[3-(1-methylpyrazol-4-yl)-1H-pyrrolo[2,3-b]pyridin-4-yl]piperidin-3-amine] | 6.89 | 6.52 | 7.72 | 8.14
6 | c1ncc(-c2c[nH]c3nccc(N4CCC[C@H](N5CCC5)C4)c23)cn1 [Example E97, 4-[(3S)-3-(azetidin-1-yl)-1-piperidyl]-3-pyrimidin-5-yl-1H-pyrrolo[2,3-b]pyridine] | 6.44 | 6.16 | 8.28 | 8.41
7 | CN(C)[C@H]1CCCN(c2ccnc3[nH]cc(-c4cncnc4)c23)C1 [Example E82, (3S)-N,N-dimethyl-1-(3-pyrimidin-5-yl-1H-pyrrolo[2,3-b]pyridin-4-yl)piperidin-3-amine] | 6.44 | 6.19 | 7.76 | 7.88
8 | c1ncc(-c2c[nH]c3nccc(N4CCC[C@H](N5CCCCC5)C4)c23)cn1 [Example E98, 4-[(3S)-3-(1-piperidyl)-1-piperidyl]-3-pyrimidin-5-yl-1H-pyrrolo[2,3-b]pyridine] | 6.01 | 5.60 | 8.10 | 8.37
9 | c1ncc(-c2c[nH]c3nccc(O[C@H]4CCCNC4)c23)cn1 [Example E222, 4-[[(3S)-3-piperidyl]oxy]-3-pyrimidin-5-yl-1H-pyrrolo[2,3-b]pyridine] | 4.30 | 4.29 | 7.55 | 7.30
10 | c1cnc(-c2c[nH]c3nccc(N4CCCC5(CCCCN5)C4)c23)nc1 (stereo not drawn) [Example E157, 8-(3-pyrimidin-2-yl-1H-pyrrolo[2,3-b]pyridin-4-yl)-1,8-diazaspiro[5.5]undecane] | 4.00 | 4.00 | 8.87 | 8.98
11 | Cc1cnc2[nH]cc(-c3cn[nH]c3)c2c1N1CCCCC1 [Example E2, 5-methyl-4-(1-piperidyl)-3-(1H-pyrazol-4-yl)-1H-pyrrolo[2,3-b]pyridine] | 6.99 | 6.68 | 7.71 | 7.44
12 | c1cnc(-c2c[nH]c3nccc(N4CCCC5(CCCCN5)C4)c23)cn1 (stereo not drawn) [Example E189, 8-(3-pyrazin-2-yl-1H-pyrrolo[2,3-b]pyridin-4-yl)-1,8-diazaspiro[5.5]undecane] | 6.78 | 6.19 | 9.88 | 8.88
13 | c1ncc(-c2c[nH]c3nccc(N4CCC[C@H](NC5CC5)C4)c23)cn1 [Example E81, (3S)-N-cyclopropyl-1-(3-pyrimidin-5-yl-1H-pyrrolo[2,3-b]pyridin-4-yl)piperidin-3-amine] | 6.74 | 6.45 | 9.03 | 8.47
14 | c1cnnc(-c2c[nH]c3nccc(N4CCCC5(CCCCN5)C4)c23)c1 (stereo not drawn) [Example E175, 8-(3-pyridazin-3-yl-1H-pyrrolo[2,3-b]pyridin-4-yl)-1,8-diazaspiro[5.5]undecane] | 6.26 | 5.73 | 9.59 | 8.82
15 | c1cc(-c2c[nH]c3nccc(N4CCC[C@]5(CCCCN5)C4)c23)ncn1 [Example E118, (6R)-8-(3-pyrimidin-4-yl-1H-pyrrolo[2,3-b]pyridin-4-yl)-1,8-diazaspiro[5.5]undecane] | 6.52 | 4.30 | 8.54 | 8.83
16 | CCN[C@H]1CCCN(c2ccnc3[nH]cc(-c4cncnc4)c23)C1 [Example E79, (3S)-N-ethyl-1-(3-pyrimidin-5-yl-1H-pyrrolo[2,3-b]pyridin-4-yl)piperidin-3-amine] | 6.35 | 4.30 | 8.91 | 8.64
17 | c1ncc(-c2c[nH]c3nccc(N4CCCC5(CCCCN5)C4)c23)cn1 (stereo not drawn) [Example E196, 8-(3-pyrimidin-5-yl-1H-pyrrolo[2,3-b]pyridin-4-yl)-1,8-diazaspiro[5.5]undecane] | 6.75 | 6.67 | 8.29 | 3.87

Compounds with a higher pKi (ROCK2), results first:

Row | pKi (ROCK2) | pKi (ROCK1) | pKi (MRCKα) | pKi (MRCKβ) | Structure (SMILES)
18 | 7.05 | 6.88 | 8.05 | 7.73 | c1cncc(-c2c[nH]c3nccc(N4CCCCC4)c23)c1 [Example E182, 4-(1-piperidyl)-3-(3-pyridyl)-1H-pyrrolo[2,3-b]pyridine]
19 | 7.18 | 7.04 | 7.09 | 7.10 | N#Cc1c[nH]c2nccc(N3CCCC3)c12 [Example E36, 4-pyrrolidin-1-yl-1H-pyrrolo[2,3-b]pyridine-3-carbonitrile]
20 | 7.21 | 6.98 | 8.46 | 8.07 | CCN[C@H]1CCCN(c2ccnc3[nH]cc(-c4cnn(C)c4)c23)C1 [Example E78, (3S)-N-ethyl-1-[3-(1-methylpyrazol-4-yl)-1H-pyrrolo[2,3-b]pyridin-4-yl]piperidin-3-amine]
21 | 7.25 | 7.18 | 8.95 | 8.75 | c1ncc(-c2c[nH]c3nccc(OC4CCCNCC4)c23)cn1 (stereo not drawn) [Example E216, 4-(azepan-4-yloxy)-3-pyrimidin-5-yl-1H-pyrrolo[2,3-b]pyridine]
22 | 7.27 | 7.08 | 9.19 | 8.56 | c1ncc(-c2c[nH]c3nccc(N4CCCC5(CCCNC5)C4)c23)cn1 (stereo not drawn) [Example E194, 2-(3-pyrimidin-5-yl-1H-pyrrolo[2,3-b]pyridin-4-yl)-2,8-diazaspiro[5.5]undecane]
23 | 7.28 | 7.24 | 8.60 | 8.43 | c1ncc(-c2c[nH]c3nccc(OC[C@@H]4CCNC4)c23)cn1 [Example E219, 3-pyrimidin-5-yl-4-[[(3R)-pyrrolidin-3-yl]methoxy]-1H-pyrrolo[2,3-b]pyridine]
24 | 7.43 | 6.78 | 9.28 | 8.47 | CN[C@H]1CCCN(c2ccnc3[nH]cc(-c4cn[nH]c4)c23)C1 [Example E84, (3S)-N-methyl-1-[3-(1H-pyrazol-4-yl)-1H-pyrrolo[2,3-b]pyridin-4-yl]piperidin-3-amine]
25 | 7.52 | 7.36 | 6.90 | 7.40 | CNc1ccnc2[nH]cc(C#N)c12 [Example E37, 4-(methylamino)-1H-pyrrolo[2,3-b]pyridine-3-carbonitrile]
26 | 7.54 | 7.03 | 9.22 | 8.82 | Cn1cc(-c2c[nH]c3nccc(N4CCCC5(CCCCN5)C4)c23)cn1 (stereo not drawn) [Example E188, 8-[3-(1-methylpyrazol-4-yl)-1H-pyrrolo[2,3-b]pyridin-4-yl]-1,8-diazaspiro[5.5]undecane]
27 | 7.59 | 7.07 | 6.91 | 7.40 | C[C@H]1CCCN1c1ccnc2[nH]cc(C#N)c12 [Example E111, 4-[(2S)-2-methylpyrrolidin-1-yl]-1H-pyrrolo[2,3-b]pyridine-3-carbonitrile]
28 | 7.69 | 7.61 | 7.89 | 8.24 | CN1CCCN(c2ccnc3[nH]cc(C#N)c23)CC1 [Example E30, 4-(4-methyl-1,4-diazepan-1-yl)-1H-pyrrolo[2,3-b]pyridine-3-carbonitrile]
29 | 7.80 | 7.24 | 7.85 | 8.05 | N#Cc1c[nH]c2nccc(N3CCCCC3)c12 [Example E35, 4-(1-piperidyl)-1H-pyrrolo[2,3-b]pyridine-3-carbonitrile]
30 | 7.81 | 7.60 | 8.04 | 8.02 | c1cc(-c2c[nH]c3nccc(N4CCCCC4)c23)[nH]n1 [Example E181, 4-(1-piperidyl)-3-(1H-pyrazol-5-yl)-1H-pyrrolo[2,3-b]pyridine]
31 | 7.82 | 7.65 | 9.66 | 9.01 | c1ncc(-c2c[nH]c3nccc(N4CCC5(CCCNC5)CC4)c23)cn1 [Example E193, 9-(3-pyrimidin-5-yl-1H-pyrrolo[2,3-b]pyridin-4-yl)-2,9-diazaspiro[5.5]undecane]
32 | 7.91 | 7.51 | 7.90 | 8.22 | c1cc(N2CCCCC2)c2c(-c3cn[nH]c3)c[nH]c2n1 [Example E183, 4-(1-piperidyl)-3-(1H-pyrazol-4-yl)-1H-pyrrolo[2,3-b]pyridine]
33 | 8.61 | 8.56 | 8.34 | 8.84 | C[C@@H]1CCCN1c1ccnc2[nH]cc(C#N)c12 [Example E110, 4-[(2R)-2-methylpyrrolidin-1-yl]-1H-pyrrolo[2,3-b]pyridine-3-carbonitrile]
